Results taken from ChEMBL document CHEMBL1151096, “7-aminoalkyl-2-amino-1,2,3,4-tetrahydro-2-naphthoic acids as inhibitors of tryptophan uptake” (Bioorg Med Chem Lett, 1992).

Tested on: WiDr
Experiment: Compound was tested for inhibition of 14C-Tryptophan uptake in WiDr human adenocarcinoma cells and the effect was determined at 0-100 uM concentration
Type: functional, cell-based

Structure (SMILES) | Ki [µM]
CN(C)c1ccc2c(c1)CC(N)(C(=O)O)CC2 (stereo not drawn) | 1.4
NC1(C(=O)O)CCc2ccc(N(CCCl)CCCl)cc2C1 (stereo not drawn) | 0.8
CC(C)Nc1ccc2c(c1)CC(N)(C(=O)O)CC2 (stereo not drawn) | 0.6
CCCNc1ccc2c(c1)CC(N)(C(=O)O)CC2 (stereo not drawn) | 1.7
NC1(C(=O)O)CCc2ccccc2C1 (stereo not drawn) | 37
CCCN(CCC)c1ccc2c(c1)CC(N)(C(=O)O)CC2 (stereo not drawn) | 7.4
NC1(C(=O)O)CCc2ccc(N(CCO)CCO)cc2C1 (stereo not drawn) | 1.4
Nc1ccc2c(c1)CC(N)(C(=O)O)CC2 (stereo not drawn) | 34
